Holding throughout (type): biochemical
The target of one test is T1, HDAC1 (Homo sapiens, UniProt Q13547).
T1 construct: purchased Enzo Life Sciences
The experiment in a line: HDAC Inhibition Screening Assay (FLUOR DE LYS Fluorimetric Drug Discovery Kit), HDAC1. The conditions noted are these: for inhibition at 2 µM: 2 μM compound; for inhibition at 10 µM: 10 μM compound; for inhibition at 50 µM: 50 μM compound. The procedure, abridged:
(§1)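 Compounds at 2 μM, 10 μM and 50 μM were each tested against HDAC1, HDAC2 and HDAC3 using a two-step fluorimetric assay. Results are given as percent of basal control after baseline subtraction.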

A further test has as its target T2, HDAC2 (Homo sapiens, UniProt Q92769).
T2 construct: purchased Enzo Life Sciences
The test is described as follows: HDAC Inhibition Screening Assay (FLUOR DE LYS Fluorimetric Drug Discovery Kit), HDAC2. Particulars: for inhibition at 2 µM: 2 μM compound; for inhibition at 10 µM: 10 μM compound; for inhibition at 50 µM: 50 μM compound. The procedure, abridged: as §1

A further test concerns the target T3, HDAC3 (Homo sapiens, UniProt O15379).
T3 construct: purchased Enzo Life Sciences
The experiment in a line: HDAC Inhibition Screening Assay (FLUOR DE LYS Fluorimetric Drug Discovery Kit), HDAC3. Particulars: for inhibition at 2 µM: 2 μM compound; for inhibition at 10 µM: 10 μM compound; for inhibition at 50 µM: 50 μM compound. The procedure, abridged:
as §1

The target in another test is T4, ATX (autotaxin) (Homo sapiens, UniProt Q13822).
T4 construct: purchased Cayman 10803
The test is described as follows: Autotaxin Inhibition Screening Assay (choline release from LPC, LPC-CR). Particulars: for inhibition at 4 µM: 4 μM compound; for inhibition at 20 µM: 20 μM compound; for inhibition at 50 µM: 50 μM compound. The procedure, abridged: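 20 ng ATX incubated with 100 μM 14:0 LPC in 50 mM Tris pH 8.0, 0.01% Triton X-100, 50 mM CaCl2, with choline oxidase/HRP/2 mM HVA coupling; compounds at 4, 20 and 50 μM. HVA fluorescence (ex/em 320/450 nm) read every 60 s for 90 min; inhibition % from slopes corrected for blank versus vehicle.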

Results on 11 compounds are retold here after US12162820B2 (TAIWANJ PHARMACEUTICALS CO., LTD., priority 2019, dated 2024).

Molecules are shown by their SMILES.

T2 sequence (Q92769 whole entry): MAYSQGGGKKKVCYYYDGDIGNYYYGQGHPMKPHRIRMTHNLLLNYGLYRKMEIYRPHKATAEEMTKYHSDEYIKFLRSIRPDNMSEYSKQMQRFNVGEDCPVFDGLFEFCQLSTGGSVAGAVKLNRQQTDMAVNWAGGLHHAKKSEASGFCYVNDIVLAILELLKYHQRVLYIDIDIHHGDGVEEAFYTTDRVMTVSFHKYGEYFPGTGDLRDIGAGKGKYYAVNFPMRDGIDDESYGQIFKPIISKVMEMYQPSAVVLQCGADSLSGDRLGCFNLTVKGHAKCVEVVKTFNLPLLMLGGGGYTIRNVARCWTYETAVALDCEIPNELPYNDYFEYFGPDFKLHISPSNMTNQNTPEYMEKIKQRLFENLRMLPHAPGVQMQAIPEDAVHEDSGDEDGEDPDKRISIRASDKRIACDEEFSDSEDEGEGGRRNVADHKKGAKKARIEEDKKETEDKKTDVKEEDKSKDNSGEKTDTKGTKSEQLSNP
T1 sequence (Q13547 whole entry): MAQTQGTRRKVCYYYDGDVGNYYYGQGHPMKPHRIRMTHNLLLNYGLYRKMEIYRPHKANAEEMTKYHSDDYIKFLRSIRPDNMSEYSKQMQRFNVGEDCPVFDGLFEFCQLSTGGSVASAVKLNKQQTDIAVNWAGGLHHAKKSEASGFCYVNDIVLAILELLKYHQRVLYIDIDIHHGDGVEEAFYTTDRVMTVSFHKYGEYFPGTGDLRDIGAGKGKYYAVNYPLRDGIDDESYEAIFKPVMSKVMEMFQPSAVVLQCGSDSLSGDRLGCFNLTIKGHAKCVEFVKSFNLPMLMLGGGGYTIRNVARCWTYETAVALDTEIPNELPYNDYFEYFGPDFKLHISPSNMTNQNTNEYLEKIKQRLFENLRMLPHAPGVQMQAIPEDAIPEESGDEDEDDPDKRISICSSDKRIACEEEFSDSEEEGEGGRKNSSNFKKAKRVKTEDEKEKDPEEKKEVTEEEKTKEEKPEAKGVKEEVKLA
T3 sequence (O15379 whole entry): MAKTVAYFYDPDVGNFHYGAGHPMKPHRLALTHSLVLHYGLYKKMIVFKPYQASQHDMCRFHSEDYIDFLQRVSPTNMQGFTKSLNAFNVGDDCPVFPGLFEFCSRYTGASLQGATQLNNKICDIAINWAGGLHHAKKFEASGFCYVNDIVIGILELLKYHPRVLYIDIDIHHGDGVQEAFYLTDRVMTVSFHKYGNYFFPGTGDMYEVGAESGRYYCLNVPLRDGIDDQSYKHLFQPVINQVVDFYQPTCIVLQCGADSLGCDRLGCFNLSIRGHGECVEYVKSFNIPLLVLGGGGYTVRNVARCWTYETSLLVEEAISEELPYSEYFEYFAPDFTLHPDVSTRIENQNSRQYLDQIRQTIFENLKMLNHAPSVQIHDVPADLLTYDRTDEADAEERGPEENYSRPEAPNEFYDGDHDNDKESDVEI
T3 sequence (O75376 395-489 partner limits assumed): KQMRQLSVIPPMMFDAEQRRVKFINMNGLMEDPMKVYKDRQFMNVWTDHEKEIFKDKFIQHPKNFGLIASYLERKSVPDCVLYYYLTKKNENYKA

As for `O=C(/C=C/c1ccc2c(c1)CCC2NC(=O)OCc1cc(C(F)(F)F)cc(C(F)(F)F)c1)NO` (stereo not drawn) [Compound 15, 3,5-bis(trifluoromethyl)benzyl (E)-(5-(3-(hydroxyamino)-3-oxoprop-1-en-1-yl)-2,3-dihydro-1H-inden-1-yl)carbamate], on HDAC1, the inhibition at 2 µM was under 50%, the inhibition at 10 µM was 50 to 80% and the inhibition at 50 µM is over 80%. Besides, at HDAC2, the inhibition at 2 µM is under 50%, the inhibition at 10 µM lay within 50 to 80% and the inhibition at 50 µM is over 80%. Further, on HDAC3, the inhibition at 2 µM was under 50%, the inhibition at 10 µM is 50 to 80% and the inhibition at 50 µM was over 80%. At ATX (autotaxin), this compound gave an inhibition at 4 µM of under 50%, an inhibition at 20 µM of under 50% and an inhibition at 50 µM of under 50%.
In the case of `Nc1cc(F)ccc1NC(=O)/C=C/c1ccc2c(c1)CCC2NCCc1c[nH]c2ccccc12` (stereo not drawn) [Compound 57, (E)-3-(1-((2-(1H-indol-3-yl)ethyl)amino)-2,3-dihydro-1H-inden-5-yl)-N-(2-amino-4-fluorophenyl)acrylamide], at HDAC1, the inhibition at 2 µM was under 50%, the inhibition at 10 µM was in the range of 50 to 80% and the inhibition at 50 µM was over 80%. Moreover, on HDAC2, the inhibition at 2 µM lay within 50 to 80%, the inhibition at 10 µM is over 80% and the inhibition at 50 µM was over 80%. Besides, at HDAC3, the inhibition at 2 µM was over 80%, the inhibition at 10 µM is over 80% and the inhibition at 50 µM is over 80%. At ATX (autotaxin), the inhibition at 4 µM was under 50%, the inhibition at 20 µM is under 50% and the inhibition at 50 µM was under 50%.
As for `O=C(CCCCC(=O)Nc1ccc2c(c1)CC/C(=C\c1cc(C(F)(F)F)cc(C(F)(F)F)c1)C2=O)NO` [Compound 14, (E)-N1-(6-(3,5-bis(trifluoromethyl)benzylidene)-5-oxo-5,6,7,8-tetrahydronaphthalen-2-yl)-N6-hydroxyadipamide], on HDAC1, the inhibition at 2 µM was under 50%, the inhibition at 10 µM was 50 to 80% and the inhibition at 50 µM was over 80%. Also, on HDAC2, the inhibition at 2 µM is under 50%, the inhibition at 10 µM is 50 to 80% and the inhibition at 50 µM was over 80%. At HDAC3, the inhibition at 2 µM is under 50%, the inhibition at 10 µM is under 50% and the inhibition at 50 µM is over 80%. In addition, at ATX (autotaxin), the inhibition at 4 µM is over 80%, the inhibition at 20 µM is over 80% and the inhibition at 50 µM is over 80%.
In the case of `CN(C(=O)OCc1cc(C(F)(F)F)cc(C(F)(F)F)c1)C1CCc2ccc(/C=C/C(=O)NO)cc21` (stereo not drawn) [Compound 65, 3,5-bis(trifluoromethyl)benzyl (E)-(6-(3-(hydroxyamino)-3-oxoprop-1-en-1-yl)-2,3-dihydro-1H-inden-1-yl)(methyl)carbamate], at HDAC1, the inhibition at 2 µM was under 50%, the inhibition at 10 µM was 50 to 80% and the inhibition at 50 µM was over 80%. For the same compound, at HDAC2, the inhibition at 2 µM was in the range of 50 to 80%, the inhibition at 10 µM was over 80% and the inhibition at 50 µM is over 80%. Also, on HDAC3, the inhibition at 2 µM is under 50%, the inhibition at 10 µM was in the range of 50 to 80% and the inhibition at 50 µM is over 80%. At ATX (autotaxin), the inhibition at 4 µM was over 80%, the inhibition at 20 µM is over 80% and the inhibition at 50 µM was over 80%.
Turning to `COc1ccc2c(c1)CCC2NC(=O)CCCCCCC(=O)NO` (stereo not drawn) [Compound 44], on HDAC1, the inhibition at 2 µM was 50 to 80%, the inhibition at 10 µM was over 80% and the inhibition at 50 µM is over 80%. Also, on HDAC2, the inhibition at 2 µM was in the range of 50 to 80%, the inhibition at 10 µM was over 80% and the inhibition at 50 µM is over 80%. For the same compound, on HDAC3, the inhibition at 2 µM was in the range of 50 to 80%, the inhibition at 10 µM is over 80% and the inhibition at 50 µM was over 80%. At ATX (autotaxin), this compound returned an inhibition at 4 µM of under 50%, an inhibition at 20 µM of under 50% and an inhibition at 50 µM of under 50%.
With `O=C(/C=C/c1ccc2c(c1)CCCC2OCc1cc(C(F)(F)F)cc(C(F)(F)F)c1)NO` (stereo not drawn) [Compound 36, (E)-3-(5-((3,5-bis(trifluoromethyl)benzyl)oxy)-5,6,7,8-tetrahydronaphthalen-2-yl)-N-hydroxy acrylamide], on HDAC1, the inhibition at 2 µM was under 50%, the inhibition at 10 µM was over 80% and the inhibition at 50 µM was over 80%. Moreover, on HDAC2, the inhibition at 2 µM lay in the range of 50 to 80%, the inhibition at 10 µM is over 80% and the inhibition at 50 µM was over 80%. For the same compound, on HDAC3, the inhibition at 2 µM is under 50%, the inhibition at 10 µM fell in the range of 50 to 80% and the inhibition at 50 µM is over 80%. For the same compound, on ATX (autotaxin), the inhibition at 4 µM was under 50%, the inhibition at 20 µM was under 50% and the inhibition at 50 µM was under 50%.
In the case of `O=C(NO)c1ccc(COc2ccc3c(c2)CC(Cc2cc(C(F)(F)F)cc(C(F)(F)F)c2)C3=O)cc1` (stereo not drawn) [Compound 77, 4-(((2-(3,5-bis(trifluoromethyl)benzyl)-1-oxo-2,3-dihydro-1H-inden-5-yl)oxy)methyl)-N-hydroxybenzamide], at HDAC1, the inhibition at 2 µM was under 50%, the inhibition at 10 µM is under 50% and the inhibition at 50 µM was in the range of 50 to 80%. On HDAC2, the inhibition at 2 µM is under 50%, the inhibition at 10 µM is 50 to 80% and the inhibition at 50 µM lay in the range of 50 to 80%. Besides, on HDAC3, the inhibition at 2 µM was under 50%, the inhibition at 10 µM was under 50% and the inhibition at 50 µM is 50 to 80%. At ATX (autotaxin), this compound gave an inhibition at 4 µM of over 80%, an inhibition at 20 µM of over 80% and an inhibition at 50 µM of over 80%.
For the compound `COc1ccc(CCNC2CCc3cc(/C=C/C(=O)Nc4ccc(F)cc4N)ccc32)cc1` (stereo not drawn) [Compound 51, (E)-N-(2-amino-4-fluorophenyl)-3-(1-((4-methoxyphenethyl)amino)-2,3-dihydro-1H-inden-5-yl) acrylamide], on HDAC1, the inhibition at 2 µM is under 50%, the inhibition at 10 µM was 50 to 80% and the inhibition at 50 µM was over 80%. Also, on HDAC2, the inhibition at 2 µM lay within 50 to 80%, the inhibition at 10 µM was over 80% and the inhibition at 50 µM is over 80%. Besides, at HDAC3, the inhibition at 2 µM was over 80%, the inhibition at 10 µM was over 80% and the inhibition at 50 µM was over 80%. On ATX (autotaxin), this compound returned an inhibition at 4 µM of under 50%, an inhibition at 20 µM of under 50% and an inhibition at 50 µM of under 50%.
On to `CCN(CC)c1ccc(C(=O)NC2CCc3cc(/C=C/C(=O)NCCCCCC(=O)Nc4ccc(F)cc4N)ccc32)cc1` (stereo not drawn) [Compound 29, (E)-N-(5-(3-((6-((2-amino-4-fluorophenyl)amino)-6-oxohexyl)amino)-3-oxoprop-1-en-1-yl)-2,3-dihydro-1H-inden-1-yl)-4-(diethylamino)benzamide], for which, on HDAC1, the inhibition at 2 µM is under 50%, the inhibition at 10 µM was under 50% and the inhibition at 50 µM was under 50%. On HDAC2, the inhibition at 2 µM is under 50%, the inhibition at 10 µM is under 50% and the inhibition at 50 µM lay within 50 to 80%. In addition, at HDAC3, the inhibition at 2 µM is under 50%, the inhibition at 10 µM is under 50% and the inhibition at 50 µM was under 50%. Further, at ATX (autotaxin), the inhibition at 4 µM was under 50%, the inhibition at 20 µM was under 50% and the inhibition at 50 µM was under 50%.
With `O=C(/C=C/c1ccc(COc2ccc3c(c2)CCC(Cc2cc(C(F)(F)F)cc(C(F)(F)F)c2)C3=O)cc1)NO` (stereo not drawn) [Compound 73, (E)-3-(4-(((6-(3,5-bis(trifluoromethyl)benzyl)-5-oxo-5,6,7,8-tetrahydronaphthalen-2-yl)oxy)methyl)phenyl)-N-hydroxyacrylamide], at HDAC1, the inhibition at 2 µM was under 50%, the inhibition at 10 µM was under 50% and the inhibition at 50 µM was under 50%. Moreover, on HDAC2, the inhibition at 2 µM was under 50%, the inhibition at 10 µM is under 50% and the inhibition at 50 µM was under 50%. For the same compound, at HDAC3, the inhibition at 2 µM was under 50%, the inhibition at 10 µM was under 50% and the inhibition at 50 µM was under 50%. At ATX (autotaxin), the inhibition at 4 µM was under 50%, the inhibition at 20 µM is under 50% and the inhibition at 50 µM was under 50%.
Regarding `O=C(/C=C/c1ccc2c(c1)CCC2NS(=O)(=O)c1cc(C(F)(F)F)cc(C(F)(F)F)c1)NO` (stereo not drawn) [Compound 18], on HDAC1, the inhibition at 2 µM was under 50%, the inhibition at 10 µM was 50 to 80% and the inhibition at 50 µM was over 80%. Besides, on HDAC2, the inhibition at 2 µM is 50 to 80%, the inhibition at 10 µM lay in the range of 50 to 80% and the inhibition at 50 µM was over 80%. Also, on HDAC3, the inhibition at 2 µM is under 50%, the inhibition at 10 µM fell in the range of 50 to 80% and the inhibition at 50 µM was over 80%. On ATX (autotaxin), this compound showed an inhibition at 4 µM of under 50%, an inhibition at 20 µM of under 50% and an inhibition at 50 µM of under 50%.

One may read the inhibition as how much of the control response was suppressed.
